Assay results reported in patent US20160158377A1, “BCL-XL Inhibitory Compounds and Antibody Drug Conjugates Including the Same” (AbbVie Inc., priority 2014, published 2016).
Where two headings read alike, the source gives them in different places.

How the values were obtained:
circulating platelets [1] = settings: mouse, in vivo
circulating platelets [2] = assay: Number of circulating platelets in mice after single intraperitoneal injection

SMILES | Time after injection at which thrombocytopenia was maximal (circulating platelets [1]) [h] | Time to lowest count (circulating platelets [1]; 100 mg/kg) [h] | Platelet number after dosing (circulating platelets [2]; dose 0.61 mg/kg) | Time to lowest count (circulating platelets [2]; dose 0.61 mg/kg) [h] | Decrease of the platelet number (circulating platelets [2]; dose 0.61 mg/kg, from normal count of approximately 6*10^5/mm^3) [fold] | Time after injection at which thrombocytopenia was maximal (circulating platelets [2]; following injection of the compounds) [h]
CC1(C)CCC(c2ccc(Cl)cc2)=C(CN2CCN(c3ccc(C(=O)NS(=O)(=O)c4ccc(N[C@H](CCN5CCOCC5)CSc5ccccc5)c(S(=O)(=O)C(F)(F)F)c4)cc3)CC2)C1 [ABT-263, Navitoclax] | 6 | 6 |  |  |  | 
CNCCOC12CC3(C)CC(C)(CC(Cn4ncc(-c5ccc(N6CCc7cccc(C(=O)Nc8nc9ccccc9s8)c7C6)nc5C(=O)O)c4C)(C3)C1)C2 [Example 2.32.24, 6-[8-(1,3-benzothiazol-2-ylcarbamoyl)-3,4-dihydroisoquinolin-2(1H)-yl]-3-[1-({3,5-dimethyl-7-[2-(methylamino)ethoxy]tricyclo[3.3.1.1^3,7]dec-1-yl}methyl)-5-methyl-1H-pyrazol-4-yl]pyridine-2-carboxylic acid] |  |  | 6*10^3 /mm^3 | 6 | 100 | 6
